Assay [1] deals with streptozotocin-induced diabetic mouse punch biopsy model. Description: Mouse punch biopsy wound healing model (streptozotocin-induced diabetic mice). The format is in vivo. The settings on record: elderly AT-MSCs cultured 24 hours with 20 μM Eda, 1 mM NAC or 2 μM AA. How it is done:
The effect of the anti-oxidative agents Eda, NAC and AA on the wound healing ability of elderly AT-MSCs was investigated using the mouse punch biopsy model, as described in Dunn et al., J Vis Exp. (75): 50265, 2013). Briefly, 7-week-old male C57BL/6 mice were anesthetized using avertin and shaved. Two wounds were established using 5 mm biopsy punch in the mice upper dorsal area. MSCs (5×10^5 cells/wound) or EVs (4 μg/wound) were injected at 4 points surrounding the punch area. Each mouse had two punched wounds, (1) PBS and (2) cells or EV-treatment. A splint was stitched to the surrounding wound areas and covered with Tegaderm (3M, USA), and the wound sites were observed every day. The images of the wound areas were captured, and the necrotic areas were analyzed using Image J software (NIH, MD).

Assay [2] concerns elderly AT-MSCs. Description: Cell senescence, senescence associated (SA) β-galactosidase activity. Conditions: 6 or 12 passages of culture with 20 μM Eda. It is filed as cell-based, human. How it is done: (§1) While not wishing to be bound by theory, the oxidative stress and resulting accumulation of ROS are believed to relate to the impaired function of elderly AT-MSCs. The effects of anti-oxidative agents on elderly AT-MSCs were tested and the expression of ROS in elderly AT-MSCs were measured following culture in the presence of 20 μM Edaravone (Eda), 1 mM N-acetylcysteine (NAC), or 2 μM Ascorbic Acid (AA), respectively. […] The concentration of Eda, NAC and AA was maintained in the culture media throughout the culture period. The effects of anti-oxidative agents on cell senescence were also investigated. Cell senescence was assessed by measuring the activity of senescence associated (SA) β-galactosidase following 6 or 12 passages of culture in the presence of 20 μM Eda, 1 mM NAC, or 2 μM AA. […] In FIGS. 3A, 3B and 3C, *=P<0.05, **=P<0.01, and ns=not significant.

The test system of assay [3] is elderly AT-MSCs. Description: Intracellular ROS level (H2-DCFDA fluorescence) in AT-MSCs. It is filed as cell-based, human. Conditions: 20 μM Eda; for ROS levels in elderly AT-MSCs after 24 hours of culture with agent: 1 mM NAC, 2 μM AA. Here is the method: The expression of ROS in infant- and elderly-derived ATMSCs was evaluated. The intracellular ROS level was measured using 2′,7′-dichlorodihydrofluorescein diacetate (H2-DCFDA, Invitrogen) according to the manufacturer's instructions. Briefly, after reaching 80% confluence, the ATMSCs were washed with PBS and incubated with PBS containing 10 μM H2-DCFDA at 37° C. for 30 minutes. The fluorescence intensity was analyzed by absorbance at 495 nm and 525 nm wavelengths using a photoemission spectrophotometer (Corona Electric, Japan).
as §1

For the compound `CC1=NN(c2ccccc2)C(=O)C1` [Eda, Edaravone], in assay [1], the “Wound healing ability of elderly AT-MSCs cultured with the agent” value (“Wound healing ability” for short) is “significantly improved wound healing”. In addition, the “(SA) β-galactosidase activity (cell senescence)” value in the assay with elderly AT-MSCs [2] is “reduced (SA) β-galactosidase activity”. In addition, in the assay with elderly AT-MSCs [3], the “ROS levels in elderly AT-MSCs after 24 hours of culture with agent” value (“ROS levels in elderly AT-MSCs” below) is given as “reduced ROS levels”. Further, the “ROS reducing effect in elderly AT-MSCs following 1 cell passage” value with elderly AT-MSCs [3] (1 cell passage) was “ROS reducing effects of Eda were evident”.
Consider `CC(=O)N[C@@H](CS)C(=O)O` [NAC, N-acetylcysteine], for which the “Wound healing ability” value in assay [1] is listed as “no effect”. Also, in the assay on elderly AT-MSCs [3], the “ROS levels in elderly AT-MSCs” value is listed as “reduced ROS levels”.
Regarding `O=C1O[C@H]([C@@H](O)CO)C(O)=C1O` [AA, Ascorbic Acid], the “Wound healing ability” value in assay [1] is given as “no effect”. The “ROS levels in elderly AT-MSCs” value with elderly AT-MSCs [3] is on record as “reduced ROS levels”.

The values are drawn from patent US20230172990A1, “EXTRACELLULAR VESICLE COMPOSITIONS AND THE USE THEREOF IN THE TREATMENT OF SKIN CONDITIONS AND IN IMMUNE MODULATION” (priority 2020, published 2023).
